Results as given in US20120014956A1, “METHODS AND COMPOSITIONS FOR PREDICTING RESPONSIVENESS TO TREATMENT WITH TNF-ALPHA INHIBITOR” (priority 2010, published 2012).

What was measured:
patients with early RA [1] = assay: OPTIMA genetic substudy: DAS28 low disease activity (<3.2) and remission (<2.6) at Week 26; assay type: in vivo, human
Text: (§1) The objective of the study was to prospectively analyze the association of 3 genetic risk factors (HLA-DRB1 shared epitope (SE), FcγRIIb, and IL-4R) for severe RA with clinical disease activity after 26 weeks of combination therapy with adalimumab (ADA) and methotrexate (MTX) or MTX monotherapy in a substudy of OPTIMA (A Multicentre, Randomized, Double Period, Double-Blind Study to Determine the Optimal Protocol for Treatment Initiation With Methotrexate and Adalimumab Combination Therapy in Patients With Early Rheumatoid Arthritis).
(§2) OPTIMA is an ongoing 78-week study with 26- and 52-week periods. Eligible patients had RA<1 year (1987-revised ACR classification), 28-joint Disease Activity Score (DAS28)>3.2, ≧6 swollen joints […], and ≧8 tender joints (SSJC66≧8). Patients had elevated erythrocyte sedimentation rate (ESR)≧28 mm/h or C-reactive protein (CRP)≧1.5 mg/dL and ≧1 of the following: >1 erosion, rheumatoid-factor positive (RF+), or anti-cyclic citrullinated peptide antibody positive (anti-CCP+). Exclusion criteria included prior exposure to systemic anti-TNF therapies, treatment with MTX or >2 disease-modifying anti-rheumatic drugs (DMARDs), other acute inflammatory joint diseases, or steroidal or surgical treatment within 4 weeks or 2 months, respectively.
(§3) In Period 2, those combination therapy responders, e.g., meeting DAS28 low disease activity (LDA) criteria (DAS28<3.2), were re-randomized 1:1 to remain on ADA+MTX or to “step down” to PBO+MTX for Weeks 26-78. In the initial PBO+MTX monotherapy group, subjects who achieved DAS28 LDA after Period 1 remained blinded on PBO+MTX for Period 2. […] Genetic data were associated with Week-26 clinical response.
(§4) For clinical assessment, the percentage of subjects achieving a 20%, 50%, and 70% improvement from baseline ACR scores was determined after Week 26 using a non-responder imputation approach. DAS28(CRP)^1 scores were evaluated at Week 26. The proportion of subjects achieving LDA (DAS28<3.2) and remission criteria (DAS28<2.6) was determined using a non-responder imputation approach.
(§5) For statistical analyses, Allele distribution between treatment groups was evaluated using the chi-square test, or Fisher's exact test in cases where data were sparse. The chi-square test was used to compare the proportion of subject achieving ACR20/50/70 and DAS28 LDA (<3.2) or remission (<2.6) within and between treatment groups.
(§6) MTX-naïve patients were randomized 1:1 to ADA (40 mg eow)+MTX (titrated to 20 mg/wk by Week 8) or placebo (PBO)+MTX for the first 26 weeks.
(§7) The percentage of subjects achieving a 50% improvement in the ACR score from baseline was determined at Week 26 using a non-responder imputation approach. The percentage of subjects achieving DAS28(CRP) remission (DAS28<2.6) was determined at Week 26 using a non-responder imputation approach.
(§8) Allele distribution between treatment groups was evaluated using the chi-square test, or Fisher's exact test in cases where data were sparse. Multivariate logistic regression was used to evaluate the effect of treatment, individual alleles, the interaction between treatment and genetic components, and baseline demographics and disease characteristics on clinical responses at 26 weeks.
(§9) MTX-naïve pts ≧18 years old with RA<1 year and active disease (DAS28>3.2, ESR≧28 mm/h or CRP≧1.5 mg/dL), and either >1 erosions, RF+, or anti-CCP+ were randomized to ADA+MTX (N=515) or PBO+MTX (N=517) for 26 wks. This analysis presents clinical outcomes at 26 weeks by HLA-DRB1 SE copy number (0×, 1×, or 2×), IL-4R I50V (AA, AG, or GG), and FcγRIIb I232T (TT, TC, CC) alleles. Non-responder imputation was used to calculate the percent of patients achieving ACR20/50/70 and DAS28 low disease activity (LDA, DAS28<3.2) and remission (DAS28<2.6). Multiple logistic regression was used to assess the influence of potential confounding baseline variables. […]

patients with early RA [2] = assay: OPTIMA genetic substudy: ACR20/50/70 response at Week 26; assay type: in vivo, human; conditions: for ACR50, % / ACR50, n/N: 26 weeks; for ACR20 Response Rates at Week 26 (title; column head ACR70), % subjects / ACR20 Response Rates at Week 26 (title; column head ACR70), n/N subjects: Table 6a; for ACR20 Response Rates at Week 26 (title; column head ACR70), % subjects / ACR20 Response Rates at Week 26 (title; column head ACR70), n/N subjects / ACR50 response rate, % subjects / ACR50 response, n/N subjects / ACR70 response rate, % subjects / ACR70 response, n/N subjects / ACR20 response rate, % subjects / ACR20 response, n/N subjects: Week 26
Text: as §1, §2, §3, §4, §5, §6, §7, §8, §9

[3] = HLA-DRB1 SE 0 copies, non-responder imputation

## CN(Cc1cnc2nc(N)nc(N)c2n1)c1ccc(C(=O)N[C@@H](CCC(=O)O)C(=O)O)cc1 [PBO + MTX, methotrexate]
Patients with early RA [1]; HLA-DRB1 SE 0 copies
  LDA DAS28 <3.2, % subjects: (30%)
  LDA DAS28 <3.2, n/N subjects: 49/167
  Remission DAS28 <2.6, % subjects: (17%)
  Remission DAS28 <2.6, n/N subjects: 28/167
Patients with early RA [1]; HLA-DRB1 SE 1 copy
  LDA DAS28 <3.2, % subjects: (23%)
  LDA DAS28 <3.2, n/N subjects: 50/215
  Remission DAS28 <2.6, % subjects: (16%)
  Remission DAS28 <2.6, n/N subjects: 35/215
Patients with early RA [1]; HLA-DRB1 SE 2 copies
  LDA DAS28 <3.2, % subjects: (24%)
  LDA DAS28 <3.2, n/N subjects: 16/69
  Remission DAS28 <2.6, % subjects: (16%)
  Remission DAS28 <2.6, n/N subjects: 11/69
Patients with early RA [1]; IL-4R AA
  LDA DAS28 <3.2, % subjects: (24%)
  LDA DAS28 <3.2, n/N subjects: 31/130
  Remission DAS28 <2.6, % subjects: (14%)
  Remission DAS28 <2.6, n/N subjects: 18/130
Patients with early RA [1]; IL-4R AG
  LDA DAS28 <3.2, % subjects: (25%)
  LDA DAS28 <3.2, n/N subjects: 58/233
  Remission DAS28 <2.6, % subjects: (16%)
  Remission DAS28 <2.6, n/N subjects: 37/233
Patients with early RA [1]; IL-4R GG
  LDA DAS28 <3.2, % subjects: (30%)
  LDA DAS28 <3.2, n/N subjects: 26/88
  Remission DAS28 <2.6, % subjects: (22%)
  Remission DAS28 <2.6, n/N subjects: 19/88
Patients with early RA [2]; IL-4R AA, HLA-DRB1 SE copy # 0
  ACR50, %: (44%)
  ACR50, n/N: 15/34
Patients with early RA [2]; IL-4R AA, HLA-DRB1 SE copy # 1
  ACR50, %: (41%)
  ACR50, n/N: 23/56
Patients with early RA [2]; IL-4R AA, HLA-DRB1 SE copy # 2
  ACR50, %: (30%)
  ACR50, n/N: 7/23
Patients with early RA [2]; IL-4R AG, HLA-DRB1 SE copy # 0
  ACR50, %: (42%)
  ACR50, n/N: 33/78
Patients with early RA [2]; IL-4R AG, HLA-DRB1 SE copy # 1
  ACR50, %: (37%)
  ACR50, n/N: 34/92
Patients with early RA [2]; IL-4R AG, HLA-DRB1 SE copy # 2
  ACR50, %: (38%)
  ACR50, n/N: 12/32
Patients with early RA [2]; IL-4R GG, HLA-DRB1 SE copy # 0
  ACR50, %: (47%)
  ACR50, n/N: 18/38
Patients with early RA [2]; IL-4R GG, HLA-DRB1 SE copy # 1
  ACR50, %: (40%)
  ACR50, n/N: 14/35
Patients with early RA [2]; IL-4R GG, HLA-DRB1 SE copy # 2
  ACR50, %: (50%)
  ACR50, n/N: 1/2
Patients with early RA [2]; ADA+MTX: FcγRIIb-CC with ACR70 and DAS28 remission
  association of FcγRIIb with 26-week response, multiple logistic regression: failed to show a significant association
Patients with early RA [2]; IL-4R alone
  association of IL-4R with 26-week response, multiple logistic regression: failed to show a significant association
Patients with early RA [2]; PBO+MTX: ACR20 and ACR50, ADA+MTX: ACR20/50/70 and DAS28 LDA
  association of SE copy number with 26-week response, multiple logistic regression: significant negative effect
Patients with early RA [2]; IL-4R AA
  ACR20 Response Rates at Week 26 (title; column head ACR70), % subjects: (13%)
  ACR20 Response Rates at Week 26 (title; column head ACR70), n/N subjects: 17/130
  ACR50 response rate, % subjects: (35%)
  ACR50 response, n/N subjects: 45/130
  ACR70 response rate, % subjects: (13%)
  ACR70 response, n/N subjects: 17/130
Patients with early RA [2]; IL-4R AG
  ACR20 Response Rates at Week 26 (title; column head ACR70), % subjects: (19%)
  ACR20 Response Rates at Week 26 (title; column head ACR70), n/N subjects: 42/233
  ACR50 response rate, % subjects: (34%)
  ACR50 response, n/N subjects: 79/233
  ACR70 response rate, % subjects: (19%)
  ACR70 response, n/N subjects: 42/233
Patients with early RA [2]; IL-4R GG
  ACR20 Response Rates at Week 26 (title; column head ACR70), % subjects: (18%)
  ACR20 Response Rates at Week 26 (title; column head ACR70), n/N subjects: 16/88
  ACR50 response rate, % subjects: (38%)
  ACR50 response, n/N subjects: 33/88
  ACR70 response rate, % subjects: (18%)
  ACR70 response, n/N subjects: 16/88
Patients with early RA [2]; HLA-DRB1 SE 0 copies
  ACR50 response rate, % subjects: (40%)
  ACR50 response, n/N subjects: 66/167
  ACR70 response rate, % subjects: (19%)
  ACR70 response, n/N subjects: 31/157
Patients with early RA [2]; HLA-DRB1 SE 0 copies, listed as MTX
  ACR50 response rate, % subjects: 40%
Patients with early RA [2]; [3]
  ACR20 response rate, % subjects: (63%)
  ACR20 response, n/N subjects: 105/167
Patients with early RA [2]; HLA-DRB1 SE 1 copy
  ACR20 response rate, % subjects: (54%)
  ACR20 response, n/N subjects: 115/215
  ACR50 response rate, % subjects: (33%)
  ACR50 response, n/N subjects: 71/215
  ACR70 response rate, % subjects: (17%)
  ACR70 response, n/N subjects: 36/215
Patients with early RA [2]; HLA-DRB1 SE 1 copy, listed as MTX
  ACR50 response rate, % subjects: 33%
Patients with early RA [2]; HLA-DRB1 SE 2 copies
  ACR20 response rate, % subjects: (52%)
  ACR20 response, n/N subjects: 36/69
  ACR50 response rate, % subjects: (29%)
  ACR50 response, n/N subjects: 20/69
  ACR70 response rate, % subjects: (13%)
  ACR70 response, n/N subjects: 9/69
Patients with early RA [2]; HLA-DRB1 SE 2 copies, listed as MTX
  ACR50 response rate, % subjects: 29%
